Test results: ChEMBL document CHEMBL1201862, “PubChem BioAssay data set” (2004)
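Test compounds were applied to cells in 96-well plates for 48 hours at 5 doses. The concentration for 50% growth inhibition is given as GI50.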 The source made the active and inactive calls. No stated cut-off is given here; in the data, active = GI50 up to about 1.1 µM and inactive = higher. Positions of bridges follow the written chain, without caps; N, C: chain ends. Non-standard residues stand in square brackets, D forms with d. Residues, ends and D or L forms follow the SMILES beside them. *: point of attachment. Cbz = O=C(OCc1ccccc1)*; Aib = CC(C)(N)C(=O)O; OBn = c1ccc(CO*)cc1; βAla = NCCC(=O)O

What was measured:
Assay in all cases: growth of human tumour cells (NCI), 48 h
SK-OV-3 = tested on: SK-OV-3
KM12 = tested on: KM12
OVCAR-8 = tested on: OVCAR-8
T47D = tested on: T47D
COLO 205 = tested on: COLO 205
786-0 = tested on: 786-0
RXF 393 = tested on: RXF 393
NCI-H226 = tested on: NCI-H226
EKVX = tested on: EKVX
Hs-578T = tested on: Hs-578T
HT-29 = tested on: HT-29
PC-3 = tested on: PC-3
CCRF-CEM = tested on: CCRF-CEM
UACC-62 = tested on: UACC-62
RPMI-8226 = tested on: RPMI-8226
UO-31 = tested on: UO-31
M14 = tested on: M14
MOLT-4 = tested on: MOLT-4
OVCAR-4 = tested on: OVCAR-4

Measured: GI50

O=C1NC(=O)C2(CCCCCC2)N1
inactive: SK-OV-3 > 100 µM | KM12 > 100 µM | OVCAR-8 > 100 µM | T47D > 100 µM | COLO 205 > 100 µM | 786-0 > 100 µM | RXF 393 > 100 µM | NCI-H226 > 100 µM | EKVX > 100 µM | Hs-578T > 100 µM | HT-29 > 100 µM | PC-3 > 100 µM | CCRF-CEM > 100 µM | UACC-62 > 100 µM | RPMI-8226 > 100 µM | UO-31 > 100 µM | M14 > 100 µM | MOLT-4 > 100 µM | OVCAR-4 > 100 µM

O=c1nc2n3c4c(cccc4nc-2c(=O)[nH]1)CCC3
inactive: SK-OV-3 > 100 µM | KM12 37.4 µM | OVCAR-8 > 100 µM | T47D 60.7 µM | COLO 205 47 µM | 786-0 > 100 µM | RXF 393 > 100 µM | NCI-H226 > 100 µM | EKVX > 100 µM | Hs-578T 28.2 µM | HT-29 95.9 µM | PC-3 > 100 µM | CCRF-CEM > 100 µM | UACC-62 > 100 µM | RPMI-8226 > 100 µM | UO-31 > 100 µM | M14 > 100 µM | MOLT-4 > 100 µM | OVCAR-4 86.7 µM

CC1=[N+](C)CCN1C
inactive: SK-OV-3 > 100 µM | KM12 > 100 µM | OVCAR-8 > 100 µM | T47D > 100 µM | COLO 205 > 100 µM | 786-0 > 100 µM | RXF 393 > 100 µM | NCI-H226 > 100 µM | EKVX > 100 µM | Hs-578T > 100 µM | HT-29 > 100 µM | PC-3 > 100 µM | CCRF-CEM > 100 µM | RPMI-8226 > 100 µM | UO-31 > 100 µM | M14 > 100 µM | MOLT-4 > 100 µM | OVCAR-4 > 100 µM

CCOP(=O)(Nc1ccc2oc(=O)c3ccccc3c2c1)OCC
inactive: OVCAR-8 > 100 µM | T47D 35.3 µM | COLO 205 > 100 µM | 786-0 76.7 µM | RXF 393 91.2 µM | NCI-H226 41 µM | EKVX 46 µM | Hs-578T 19.8 µM | HT-29 63.2 µM | PC-3 27.8 µM | CCRF-CEM 51.3 µM | UACC-62 48.1 µM | RPMI-8226 21.2 µM | M14 > 100 µM | MOLT-4 54.8 µM | OVCAR-4 60.1 µM

CN(C)/N=C/c1cn(C)c(=O)n(C)c1=O
inactive: SK-OV-3 > 100 µM | KM12 > 100 µM | OVCAR-8 > 100 µM | T47D > 100 µM | COLO 205 > 100 µM | 786-0 > 100 µM | RXF 393 > 100 µM | NCI-H226 > 100 µM | EKVX > 100 µM | Hs-578T > 100 µM | HT-29 > 100 µM | PC-3 > 100 µM | CCRF-CEM > 100 µM | UACC-62 > 100 µM | RPMI-8226 > 100 µM | UO-31 > 100 µM | M14 > 100 µM | MOLT-4 > 100 µM | OVCAR-4 > 100 µM

CN(C)CCOC(=O)c1ccc(N)cc1
inactive: SK-OV-3 56.6 µM | KM12 37.2 µM | OVCAR-8 70.8 µM | T47D 58.5 µM | COLO 205 67.3 µM | 786-0 44.8 µM | RXF 393 97.1 µM | NCI-H226 21.5 µM | Hs-578T 32.4 µM | HT-29 27 µM | PC-3 12.1 µM | CCRF-CEM 20.7 µM | UACC-62 36.8 µM | RPMI-8226 24.4 µM | UO-31 33.8 µM | M14 17.6 µM | MOLT-4 28.2 µM | OVCAR-4 31.6 µM

CC1(C)NC(=O)C(NC(=O)C(CC(=O)OCc2ccccc2)NC(=O)OCc2ccccc2)CCCCNC(=O)CCNC1=O (stereo not given) (Cbz-D(OBn)K[Aib][βAla]; lactam 2-C; configuration not given here)
inactive: SK-OV-3 > 100 µM | KM12 > 100 µM | OVCAR-8 > 100 µM | T47D > 100 µM | COLO 205 > 100 µM | 786-0 > 100 µM | RXF 393 > 100 µM | NCI-H226 > 100 µM | EKVX > 100 µM | Hs-578T > 100 µM | HT-29 > 100 µM | PC-3 > 100 µM | UACC-62 > 100 µM | RPMI-8226 > 100 µM | UO-31 > 100 µM | M14 > 100 µM | MOLT-4 > 100 µM | OVCAR-4 > 100 µM

Cc1cccc2c(N)c3cccc(C(=O)NCC[N+](C)(C)Cc4ccc([N+](=O)[O-])n4C)c3nc12
inactive: SK-OV-3 25.1 µM | KM12 16.7 µM | OVCAR-8 18.7 µM | T47D 4.71 µM | COLO 205 9.82 µM | 786-0 7.45 µM | RXF 393 22.4 µM | NCI-H226 6.5 µM | EKVX 27.6 µM | Hs-578T 7.26 µM | HT-29 9.33 µM | PC-3 24 µM | CCRF-CEM 3.7 µM | UACC-62 44.3 µM | RPMI-8226 12.1 µM | UO-31 16.2 µM | M14 23.3 µM | MOLT-4 1.66 µM | OVCAR-4 46.8 µM

c1ccc(CNCCN2CCNCC2)nc1
inactive: SK-OV-3 > 100 µM | KM12 > 100 µM | OVCAR-8 > 100 µM | T47D > 100 µM | COLO 205 > 100 µM | 786-0 > 100 µM | RXF 393 > 100 µM | NCI-H226 > 100 µM | EKVX > 100 µM | Hs-578T > 100 µM | HT-29 > 100 µM | PC-3 > 100 µM | UACC-62 > 100 µM | RPMI-8226 > 100 µM | UO-31 > 100 µM | M14 > 100 µM | MOLT-4 > 100 µM | OVCAR-4 > 100 µM

Cc1nc2c(n1CCCl)C(=O)c1ccccc1C2=O
inactive: SK-OV-3 5.22 µM | KM12 25.3 µM | OVCAR-8 17.9 µM | T47D > 10 µM | COLO 205 14 µM | 786-0 52.2 µM | RXF 393 19.5 µM | NCI-H226 18.7 µM | EKVX 53.8 µM | Hs-578T 20.1 µM | HT-29 15.8 µM | PC-3 8.43 µM | CCRF-CEM 22.6 µM | UACC-62 13 µM | RPMI-8226 58.6 µM | M14 4.68 µM | MOLT-4 12.9 µM | OVCAR-4 14.8 µM

CC(C)CCCC(C)[C@H]1CC[C@H]2N/C(=N/Cc3ccccc3)CCC[C@]12C (stereo not given in full)
inactive: SK-OV-3 5.31 µM | KM12 1.88 µM | OVCAR-8 1.67 µM | T47D 2.83 µM | COLO 205 1.42 µM | 786-0 2 µM | RXF 393 1.53 µM | NCI-H226 2.07 µM | Hs-578T 3.37 µM | HT-29 1.28 µM | PC-3 1.81 µM | CCRF-CEM 2.13 µM | UACC-62 1.83 µM | RPMI-8226 1.59 µM | UO-31 2.59 µM | M14 2.32 µM | MOLT-4 1.88 µM | OVCAR-4 1.98 µM

OC1CSc2nc3ccccc3n2C1 (stereo not given)
inactive: SK-OV-3 > 100 µM | KM12 > 100 µM | OVCAR-8 > 100 µM | T47D > 100 µM | COLO 205 > 100 µM | 786-0 > 100 µM | RXF 393 > 100 µM | NCI-H226 > 100 µM | EKVX > 100 µM | Hs-578T 23.8 µM | HT-29 > 100 µM | PC-3 > 100 µM | CCRF-CEM > 100 µM | UACC-62 > 100 µM | RPMI-8226 > 100 µM | UO-31 > 100 µM | M14 > 100 µM | MOLT-4 > 100 µM

CCc1nc2ccc(/N=N/N(C)C)cc2[nH]1
inactive: KM12 > 100 µM | OVCAR-8 > 100 µM | T47D > 100 µM | COLO 205 > 100 µM | 786-0 > 100 µM | RXF 393 45.3 µM | NCI-H226 > 100 µM | EKVX > 100 µM | Hs-578T > 100 µM | HT-29 > 100 µM | PC-3 > 100 µM | CCRF-CEM > 100 µM | UACC-62 > 100 µM | RPMI-8226 > 100 µM | UO-31 > 100 µM | M14 > 100 µM | MOLT-4 > 100 µM | OVCAR-4 > 100 µM

CC(=O)N(O)c1ccc(-c2nc3ccccc3s2)cc1
inactive: KM12 38.2 µM | OVCAR-8 40.9 µM | T47D 32.9 µM | COLO 205 > 100 µM | 786-0 55.1 µM | RXF 393 61.8 µM | NCI-H226 24.2 µM | Hs-578T 32.7 µM | HT-29 46.6 µM | PC-3 > 100 µM | CCRF-CEM > 100 µM | UACC-62 > 100 µM | RPMI-8226 15 µM | UO-31 46 µM | M14 85.7 µM | MOLT-4 48.6 µM | OVCAR-4 28.2 µM

CC1N(C)C(=O)OC12CCN(CCCC(=O)c1ccc(F)cc1)CC2 (stereo not given)
inactive: SK-OV-3 > 100 µM | KM12 > 100 µM | OVCAR-8 > 100 µM | T47D > 100 µM | COLO 205 > 100 µM | 786-0 > 100 µM | RXF 393 > 100 µM | NCI-H226 > 100 µM | Hs-578T > 100 µM | HT-29 > 100 µM | PC-3 > 100 µM | CCRF-CEM > 100 µM | UACC-62 > 100 µM | RPMI-8226 > 100 µM | UO-31 > 100 µM | M14 > 100 µM | MOLT-4 > 100 µM
